In patent US8658188B2, “Radio-opaque bioactive glass materials” (Universitat Zurich, priority 2009, dated 2014):

Test: Radiopacity assessment against an aluminum step wedge
Assay type: physicochemical
Settings: paste in 0.9 wt % NaCl saline, 60% weight to volume, 1 mm thick, X-ray 65 kV, n=3
Text: According to Waltimo et al., 2009, J Dent Res, 88, 235-8, the amount of bioactive particles per volume plays an important role in the closed environment of a root canal. To achieve a denser packing of the naturally relatively light nanomaterial (low-density powder with snow-like behaviour), uniaxial pressure of 2.6 MPa was applied for 30 seconds. […] The thus improved filler was compared to classical (flame derived) bioactive particles (no bismuth), to mechanical mixtures of bioactive particles and barium sulphate (50/wt %) and bismuth oxide (80/20 wt %; 50/50 wt %). Calcium hydroxide with or without additional barium sulphate was used as commercially available control material. Bovine dentine slices with a thickness of 1 mm served as control for the clear distinction between material and the surrounding tissue in clinical situations. Prior to use, the corresponding powder was homogeneously mixed with unbuffered physiological saline (0.9 wt % NaCl) to obtain a final weight to volume ratio of 60% (plastic limit, i.e. the maximum amount of powder per liquid to yield a paste-like suspension). A radiograph was taken after preparing the paste and placing it in a polycarbonate mould (10 mm diameter, 1 mm thick). Specimens were placed on a radio-graphic film (Digora, Finland) together with an aluminum step-wedge with a variable thickness from 0.5 mm to 6 mm (0.5 mm and 1 mm increments). […]

In the case of `[Ca+2].[OH-].[OH-]` [calcium hydroxide, Calcium hydroxide], the “aluminum equivalent (radiopacity)” value was 0.6 mm.
